In patent publication US12370193B2, “Method of inhibiting TREM-1” (UNIVERSITY OF FLORIDA RESEARCH FOUNDATION, INCORPORATED, priority 2019, dated 2025):

Assays:
OP9 cells = experiment: Adipogenesis and gene expression in MDI-differentiated OP9 cells; format: cell-based
Text: FIGS. 1A to 1E: Pan modulator with poly-pharmacology. […] FIG. 1D is a graph showing PPARγ target genes (aP2 and CD36) expression in OP9 cells with and without MDI (IBMX, dexamethasone, insulin) treatment. […] SR1903 is represented as orange sticks while PPARγ, RORγ, and LXRβ are depicted as blue ribbons respectively. Specific residues driving the interaction labelled and shown as sticks as well. […] FIG. 1F are graphs showing RORγ target genes (IL17A and IL17F) expression in EL4 cells.
FIG. 5A-5C: PPARγ and RORγ expression during adipogenesis of OP9 cells.
Cell lines: HEK293T cells and EL4 cells (American Type Culture Collection) were maintained in DMEM and RAW264.7 cells (American Type Culture Collection) were maintained in RPMI-1640 with 10% heat inactivated FBS and antibiotics (penicillin, streptomycin; Invitrogen). OP9 cells (American Type Culture collection) were maintained in Alpha minimum essential medium (MEM-alpha) with 20% heat inactivated FBS. Twenty-four hours post-confluence, the OP9 cells were differentiated with IBMX ([…]), dexamethasone (1 μM), Insulin (10 μg/mL) for 48 hrs.
Quantitative RT-PCR: Total RNA was extracted from EL4 or RAW264.7 cells using RNeasy Plus Micro Kit (Qiagen) and the RNA was reverse transcribed using the ABI reverse transcription kit (Applied Biosystems/Thermo Fisher Scientific, Waltham MA). Quantitative PCR was performed with a 7900HT Fast Real Time PCR System (Applied Biosystems) using SYBR green (Roche).

LXRα LBD = target: T1, LXRα LBD (Homo sapiens, UniProt Q13133); experiment: Differential HDX-MS of LXRα LBD; format: binding; conditions: 1:10 molar excess of ligand
T1 construct: 10 μM of the apo protein (LXRα LBD and PPARγ LBD) was mixed with 1:10 molar excess of ligand
T1 sequence (Q13133 209-447 limits assumed): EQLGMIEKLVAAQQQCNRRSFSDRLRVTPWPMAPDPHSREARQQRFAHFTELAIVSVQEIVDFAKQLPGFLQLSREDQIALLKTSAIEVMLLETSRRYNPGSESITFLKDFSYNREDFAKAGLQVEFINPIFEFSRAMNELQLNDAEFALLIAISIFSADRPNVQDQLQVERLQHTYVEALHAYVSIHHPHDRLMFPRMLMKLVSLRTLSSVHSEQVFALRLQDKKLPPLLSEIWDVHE
Description: Hydrogen-deuterium exchange (HDX) detected by mass spectrometry (MS): Solution-phase amide HDX experiments were carried out with a fully automated system (CTC HTS PAL, LEAP Technologies, Carrboro, NC; housed inside a 4° C. cabinet) as described previously with the modifications described below^41.
Peptide Identification: Peptides were identified using tandem MS (MS/MS) experiments performed with a QExactive (ThermoFisher, San Jose, CA) over a 70 min gradient. Product ion spectra were acquired in a data-dependent mode and the five most abundant ions were selected for the product ion analysis per scan event. […]
Hydrogen/deuterium exchange (HDX) analysis: 10 μM of the apo protein (LXRα LBD and PPARγ LBD) was mixed with 1:10 molar excess of ligand and incubated for 2 hours at 4° C. for complex formation before subjecting them to HDX analysis. […] The intensity weighted mean m/z centroid value of each peptide envelope was calculated and subsequently converted into a percentage of deuterium incorporation. […] In the absence of a fully deuterated control, 100% deuterium incorporation was calculated theoretically, and corrections for back-exchange were made on the basis of an estimated 70% deuterium recovery and accounting for 80% final deuterium concentration in the sample (1:5 dilution in D2O HDX buffer). […]

[1] = OP9 cells, MDI plus 5 uM SR1903, compared to MDI treatment alone

Question: How did the “expression of PPARγ” value (OP9 cells; OP9 adipogenesis) turn out when `Cc1cc(CN2CCN(Cc3ccncc3)CC2)ccc1-c1ccc(C(O)(C(F)(F)F)C(F)(F)F)cc1` [SR1903, 1,1,1,3,3,3-hexafluoro-2-(2′-methyl-4′-((4-(pyridin-4-ylmethyl)piperazin-1-yl)methyl)-[1,1′-biphenyl]-4-yl)propan-2-ol] was run?
Answer: Its value is “robustly repressed”.

Question: What about the “expression of RORγ” value (OP9 cells; OP9 adipogenesis) of the same molecule?
Answer: Its value is “no effect”.

Question: And the lipid droplet formation (OP9 cells; OP9 cells, MDI in combination with SR1903, 3 days)?
Answer: The lipid droplet formation was “suppression of lipid droplet formation”.

Question: And the “repression of PPARγ target gene CD36 expression” value (OP9 cells; [1])?
Answer: The value was 87%.

Question: And the “repression of PPARγ target gene aP2 (FABP4) expression” value (OP9 cells; [1])?
Answer: Its value is 99%.

Question: And the “deuterium exchange of LXRα LBD” value (LXRα LBD)?
Answer: The value was “makes a direct interaction with the receptor”.
